{"source": "patent US12428458B2", "about": "“Therapeutic agent for psoriasis” (StemRIM Inc., priority 2018, dated 2025)", "type_in_all_cases": "in vivo, C57BL/6 mice", "key": {"[1]": {"system": "inflammatory cytokines (IL-1β, IL-6, IL-17A, IL-17F, and IL-22)", "experiment": "Expression levels of inflammatory cytokines in dorsal skin by quantitative PCR (Example 2)", "details": "mRNA, Day 5, 5 mg/kg/day i.v. for three days, vs control group", "description": "(§1) The drugs were prepared and the psoriasis model mice were produced in the same way as Example 1. The peptides were administered in the same way as Example 1 except that the number of mice was changed to six in both the HMGB1 peptide (1-44) administration group and the control group.\n(§2) On the 5th day from the start of imiquimod application, the dorsal skin of the mice was collected, mRNA was extracted from the skin, and the expression levels of the inflammatory cytokines (IL-1β, IL-6, IL-17A, IL-17F, and IL-22), which are known to be involved in the pathogenesis of psoriasis, were analyzed by quantitative PCR."}, "[2]": {"system": "psoriasis model mice", "experiment": "PASI score in imiquimod-induced psoriasis model mice (Example 2)", "details": "5 mg/kg/day i.v. for three days, up to Day 4, vs control group (saline), n=6", "description": "as §1\nThe degree of the symptoms of psoriasis on the dorsal skin of the mice was evaluated by the PASI score for four days from the 1st day of the start of imiquimod application. The PASI score was calculated in the same manner as Example 1."}, "[3]": {"system": "psoriasis model mice", "experiment": "PASI score in imiquimod-induced psoriasis model mice (Example 1)", "excerpt": "(§3) In order to induce psoriasis using imiquimod, a cream containing 5% imiquimod (Beselna Cream 5%, manufactured by Mochida Pharmaceutical Co., Ltd.) was used. Imiquimod is represented as IMQ in the drawings corresponding to the Examples of this application. A peptide consisting of amino acid residues 1-44 of the human-derived HMGB1 protein (SEQ ID NO: 1) was chemically synthesized by a solid-phase method. Hereinafter, the HMGB1 fragment peptide is referred to as the HMGB1 peptide (1-44) and is expressed as an abbreviation “1-44” in the drawings corresponding to the Examples.\n(§4) C57BL/6 mice (7-week-old, female, body weight about 20 g) were prepared, and the hair on the back was removed. In order to induce psoriasis, the cream containing 5% imiquimod was applied to the dorsal skin of the mice at a dose of 1.25 g/animal/day (62.5 mg/animal/day as imiquimod) once a day for four days. In the following, the day when imiquimod was first applied is represented as “the 1st day of the start of imiquimod application (Day 1)”, and the next day onward is represented as “the Xth day from the start of imiquimod application (Day X)”. That is, the last day that imiquimod was applied was the 4th day from the start of imiquimod application (Day 4), and no application was performed on the 5th day from the start of imiquimod application (Day 5).\nThe psoriasis model mice produced as described above were divided into the HMGB1 peptide (1-44) administration group (n=3) and the control group (n=3). The test substance was administered by injecting an HMGB1 peptide (1-44) solution, which has been adjusted to a concentration of 1 μg/μl with saline as the vehicle, into the vein at a dose of 100 μl/day (5 mg/kg/day as the peptide dose) for three days from the 1st day of the start of imiquimod application (Day 1). […]\nThe degree of the symptoms of psoriasis on the dorsal skin of the mice was evaluated by the PASI score for five days from the 1st day of the start of imiquimod application. The PASI score was calculated by quantifying the degree of each of (a) erythema, (b) scaling (desquamation), and (c) thickening (infiltration) of skin using five stages, [no symptoms: 0 points, mild: 1 point, moderate: 2 points, severe: 3 points, and extremely severe: 4 points], and summing up the values of (a), (b), and (c) (minimum 0 points-maximum 12 points).\n(a) The erythema score was determined by using the photographs of the back of mice shown in FIG. 1 as a criterion for each score and visually comparing them with the condition of the back of the mice to be evaluated. (b) The scaling score was determined by using the photographs of the back of mice shown in FIG. 2 as a criterion for each score and visually comparing them with the condition of the back of the mice to be evaluated. (c) The thickening score was determined as follows: Two measurement sites were determined on the back of the mice, the skin was pinched and its thickness was measured with a caliper, and the average value from the two sites was recorded daily as the skin thickness (mm). Quantification was carried out by giving 0 points when the value of skin thickness of each day relative to the skin thickness on the 1st day of the start of imiquimod application (before application) was less than 1.1, 1 point when the value was 1.1 or more to less than 1.3, 2 points when the value was 1.3 or more to less than 1.5, 3 points when the value was 1.5 or more to less than 1.7, and 4 points when the value was 1.7 or more."}, "[4]": {"system": "inflammatory cytokines (IL-6, IL-17F, and IL-22)", "experiment": "Expression levels of inflammatory cytokines in dorsal skin by quantitative PCR (Example 1)", "details": "mRNA, Day 5, 5 mg/kg/day i.v. for three days, vs control group", "excerpt": "as §3, §4\nThe psoriasis model mice produced as described above were divided into the HMGB1 peptide (1-44) administration group (n=3) and the control group (n=3). […]\nas §2, with “application (Day 5),” for “application,”, “(IL-6,” for “(IL-1β, IL-6, IL-17A,”"}, "[5]": {"details": "5 mg/kg/day i.v. for three days, up to Day 5, vs control group"}}}
{"substance": "HMGB1 peptide (1-44): peptide consisting of amino acid residues 1-44 of the human-derived HMGB1 protein (SEQ ID NO: 1), chemically synthesized by a solid-phase method (MGKGDPKKPRGKMSSYAFFVQTCREEHKKKHPDASVNFSEFSKK)", "values": [{"measurement": "expression level of IL-1β in the skin", "setting": "[1]", "value": "lower than those in the control group"}, {"measurement": "expression level of IL-6 in the skin", "setting": "[1]", "value": "lower than those in the control group"}, {"measurement": "expression level of IL-17A in the skin", "setting": "[1]", "value": "lower than those in the control group"}, {"measurement": "expression level of IL-17F in the skin", "setting": "[1]", "value": "lower than those in the control group"}, {"measurement": "expression level of IL-22 in the skin", "setting": "[1]", "value": "lower than those in the control group"}, {"measurement": "PASI score", "setting": "[2]", "value": "lower than that in the control group"}, {"measurement": "PASI score", "setting": "[3]; 5 mg/kg/day i.v. for three days from Day 1, up to Day 5, vs control group (saline), n=3", "value": "lower than those in the control group"}, {"measurement": "PASI score on the 5th day from the start of imiquimod application", "setting": "[3]; 5 mg/kg/day i.v. for three days, Day 5, vs control group (saline), p<0.05, 5 mg/kg/day", "value": "significantly lower than that in the control group"}, {"measurement": "erythema score", "setting": "[3]; [5]", "value": "lower than those in the control group"}, {"measurement": "scaling score", "setting": "[3]; [5]", "value": "lower than those in the control group"}, {"measurement": "thickening score", "setting": "[3]; [5]", "value": "lower than those in the control group"}, {"measurement": "expression level of IL-6 in the skin", "setting": "[4]", "value": "lower than those in the control group"}, {"measurement": "expression level of IL-17F in the skin", "setting": "[4]", "value": "lower than those in the control group"}, {"measurement": "expression level of IL-22 in the skin", "setting": "[4]", "value": "lower than those in the control group"}]}
